| SMILES | melting point [°C] |
| --- | --- |
| C/C=C1/C(=O)C[C@H]2[C@@H]3CC=C4C[C@@H](O[Si](C)(C)C(C)(C)C)CC[C@]4(C)[C@H]3CC[C@]12C [Compound I-8] | 161 to 163 |
| C/C=C1/[C@H](O)C[C@H]2[C@@H]3CC[C@H]4C[C@@H](O[Si](C)(C)C(C)(C)C)CC[C@]4(C)[C@H]3CC[C@]12C (stereo in doubt) | 145 to 147 |
| CC(=O)O[C@H]1CC[C@]23C[C@]24CC[C@]2(C)[C@@H]([C@H](C)CCC(=O)C(F)(F)F)CC[C@@]2(C)[C@@H]4CC[C@H]3C1(C)C | 133 to 135 |
| COC(=O)C(=O)C[C@@H](C)[C@H]1CC[C@@]2(C)C3CCC4C(C)(C)[C@@H](OC(C)=O)CC[C@@]45C[C@@]35CC[C@]12C (stereo in doubt) [Compound I-20] | 120 to 122 |
| CC(C)(C)[Si](C)(C)O[C@H]1CC[C@@]2(C)C(=CC[C@@H]3[C@@H]2CC[C@]2(C)C(=O)CC[C@@H]32)C1 [Compound I-13] | 150 to 152 |
| C[C@H](C(O)CO)C1C(=O)C[C@H]2[C@@H]3CC=C4C[C@@H](O[Si](C)(C)C(C)(C)C)CC[C@]4(C)[C@H]3CC[C@]12C (stereo partly shown) | 172 to 175 |
| CC(=O)O[C@H]1CC[C@]23C[C@]24CC[C@]2(C)[C@@H]([C@H](C)CCC(=O)C(C)C)CC[C@@]2(C)C4CCC3C1(C)C (stereo partly drawn) [Compound I-3, 24-Oxocycloartanol-3-β-O-acetate] | 119 to 121 |
| C=C[C@@H](C)[C@H]1C(=O)C[C@H]2[C@@H]3CC[C@H]4C[C@@H](O[Si](C)(C)C(C)(C)C)CC[C@]4(C)[C@H]3CC[C@]12C | 132 to 134 |
| CC(=O)O[C@H]1CC[C@]23C[C@]24CC[C@]2(C)[C@@H]([C@H](C)CC(=O)O)CC[C@@]2(C)C4CCC3C1(C)C (stereo in doubt) [Compound I-17, 3β-Acetoxy-9,19-Cyclo-4,4,14-trimethyl-24-norchol-23-oic acid] | 222 to 224 |
| CC(=O)O[C@H]1CC[C@]23C[C@]24CC[C@]2(C)[C@@H]([C@H](C)CCC(=O)O)CC[C@@]2(C)C4CCC3C1(C)C (stereo in doubt) [Compound I-4, 3-β-O-acetyl-25,26,27-Trinorcycloartan-24-oic acid] | 201 to 212 |
| C=C[C@@H](C)[C@H]1C(=O)CC2C3CC=C4C[C@@H](O)CC[C@]4(C)C3CC[C@@]21C (stereo partly shown) | 125 to 127 |
| C/C=C1\C(=O)C[C@H]2[C@@H]3CC=C4C[C@@H](O[Si](C)(C)C(C)(C)C)CC[C@]4(C)[C@H]3CC[C@]12C | 138 to 142 |
| C[C@H](C#N)[C@H]1C(=O)C[C@H]2[C@@H]3CC=C4C[C@@H](O)CC[C@]4(C)[C@H]3CC[C@]12C | 124 to 126 |
| CC(=O)O[C@H]1CC[C@]23C[C@]24CC[C@]2(C)[C@@H]([C@H](C)CC(=O)C(F)(F)F)CC[C@@]2(C)C4CCC3C1(C)C (stereo in doubt) [Compound I-18, 3β-Acetoxy-9,19-Cyclo-4,4,14-trimethyl-23-oxo-24-trifluorocholane] | 170 to 173 |
| C/C=C1/CCC2C3CC=C4C[C@@H](O)CC[C@]4(C)C3CC[C@]12C (stereo partly shown) | 168 to 170 |
| C/C=C1/C(O)CC2C3CC=C4C[C@@H](O[Si](C)(C)C(C)(C)C)CC[C@]4(C)C3CC[C@]12C (stereo in doubt) [Compound I-7] | 137 to 139 |
| CC(=O)O[C@H]1CC[C@]23C[C@]24CC[C@]2(C)[C@@H]([C@H](C)CCC5OC5(C)C)CC[C@@]2(C)[C@@H]4CC[C@H]3C1(C)C (stereo partly shown) | 141 to 143 |

| SMILES | melting point [°C] |
| --- | --- |
| C/C=C1/C(=O)CC2C3CC=C4C[C@@H](O)CC[C@]4(C)C3CC[C@]12C (stereo partly shown) | 124 to 126 |
| CC(C#N)[C@H]1[C@@H](O)CC2C3CC=C4C[C@@H](O[Si](C)(C)C(C)(C)C)CC[C@]4(C)C3CC[C@@]21C (stereo in doubt) [Compound I-10] | 290 to 292 |
| C/C=C1/CC[C@H]2[C@@H]3CC=C4C[C@@H](O[Si](C)(C)C(C)(C)C)CC[C@]4(C)[C@H]3CC[C@]12C [Compound I-6] | 128 to 130 |
| C=C[C@@H](C)[C@H]1[C@H](O)C[C@H]2[C@@H]3CC=C4C[C@@H](O[Si](C)(C)C(C)(C)C)CC[C@]4(C)[C@H]3CC[C@]12C | 156 to 158 |
| CC(=O)O[C@H]1CC[C@]23C[C@]24CC[C@]2(C)[C@@H]([C@H](C)CCC5(C(C)C)CO5)CC[C@@]2(C)[C@@H]4CC[C@H]3C1(C)C (stereo partly shown) | 129 to 131 |
| CC(=O)O[C@H]1CC[C@]23C[C@]24CC[C@]2(C)[C@@H]([C@H](C)CC(=O)C(C#N)=P(c5ccccc5)(c5ccccc5)c5ccccc5)CC[C@@]2(C)C4CCC3C1(C)C (stereo in doubt) [Compound I-19] | 203 to 205 |
| C=C[C@@H](C)[C@H]1C2(CC3C4CC=C5C[C@@H](O[Si](C)(C)C(C)(C)C)CC[C@]5(C)C4CC[C@@]31C)OCCO2 (stereo partly shown) | 112 to 114 |
| C/C=C1/CC[C@H]2[C@@H]3CC[C@H]4C[C@@H](O[Si](C)(C)C(C)(C)C)CC[C@]4(C)[C@H]3CC[C@]12C (stereo in doubt) | 136 to 137 |
| CC(C)(C)[Si](C)(C)O[C@H]1CC[C@@]2(C)[C@@H](CC[C@@H]3[C@@H]2CC[C@]2(C)C(=O)CC[C@@H]32)C1 | 159 to 162 |
| C=C[C@@H](C)[C@H]1CC[C@@]2(C)[C@@H]3CC[C@H]4C(C)(C)[C@@H](OC(C)=O)CC[C@@]45C[C@@]35CC[C@]12C | 145 to 147 |
| C/C=C1/C(O)CC2C3CC=C4C[C@@H](O)CC[C@]4(C)C3CC[C@]12C (stereo partly shown) | 151 to 154 |
| CC(=O)O[C@H]1CC[C@]23C[C@]24CC[C@]2(C)[C@@H]([C@H](C)CCC(O)C(C)C)CC[C@@]2(C)[C@@H]4CC[C@H]3C1(C)C (stereo partly shown) | 126 to 128 |
| CC(=O)O[C@H]1CC[C@]2(C)C3CC[C@]4(C)[C@@H]([C@H](C)CC(=O)O)CC[C@@]4(C)C3CCC2C1(C)C (stereo partly shown) | 203 to 205 |
| C/C=C1/C(=O)C[C@H]2[C@@H]3CC[C@H]4C[C@@H](O[Si](C)(C)C(C)(C)C)CC[C@]4(C)[C@H]3CC[C@]12C (stereo in doubt) | 210 to 212 |
| C/C=C1\C(=O)C[C@H]2[C@@H]3CC=C4C[C@@H](O)CC[C@]4(C)[C@H]3CC[C@]12C | 112 to 113 |
| C[C@H](C1CO1)[C@H]1C(=O)C[C@H]2[C@@H]3CC=C4C[C@@H](O[Si](C)(C)C(C)(C)C)CC[C@]4(C)[C@H]3CC[C@]12C (stereo partly shown) | 103 to 104 |
| COC(=O)C(=O)C[C@@H](C)[C@H]1CC[C@@]2(C)C3CCC4C(C)(C)[C@@H](OC(C)=O)CC[C@]4(C)C3CC[C@]12C (stereo partly shown) | 125 to 127 |

From patent publication US20120283217A1, “MODULATORS OF AMYLOID-BETA PRODUCTION” (SATORI PHARMACEUTICALS, INC., priority 2006, published 2012)
